Measurements published in ChEMBL document CHEMBL5214905 (J Med Chem, 2021).
Active and inactive are the calls of the source. The rule behind the calls is not given here.

Assays:
[1] = biological target: T1, Tryptophan 2,3-dioxygenase (Homo sapiens, UniProt P48775)
Description: Inhibition of human TDO (19 to 388 aa) expressed in Escherichia coli Transetta (DE3) by nanodrop 2000c spectrophotometric analysis

[2] = biological target: Indoleamine 2,3-dioxygenase 1 (Homo sapiens, UniProt P14902); test: Inhibition of IDO1 in IFN-gamma induced overexpressing human HeLa cells; type: cell-based
[3] = biological target: T1, Tryptophan 2,3-dioxygenase; test: Inhibition of TDO in overexpressing human SW48 cells; type: cell-based
[4] = system: MDR1; test: Apparent permeability in MDCKII expressing MDR1 cells across apical to basolateral side; type: ADME, cell-based, Canis lupus familiaris, MDCK-II; details: dog, MDCK-MDR1; read-out: permeability
[5] = system: BCRP; test: Apparent permeability in human Caco-2 expressing BCRP cells across apical to basolateral side; type: ADME, cell-based; details: read-out: permeability
[6] = system: BCRP; test: Apparent permeability in human Caco-2 expressing BCRP cells across basolateral to apical side in presence of novobiocin; type: ADME, cell-based; details: Caco-2, with novobiocin (concentration not stated), read-out: permeability
[7] = system: MDR1; test: Permeability in MDCKII expressing MDR1 cells across apical to basolateral side by measuring ratio of the final amount of the compound in donor and receiver chambers to the initial amount of the compound in the donor chamber relative to control; type: ADME, cell-based, Canis lupus familiaris, MDCK-II; details: dog, MDCK-MDR1
[8] = system: BCRP; test: Permeability in human Caco-2 expressing BCRP cells across apical to basolateral side by measuring ratio of the final amount of the compound in donor and receiver chambers to the initial amount of the compound in the donor chamber relative to control; type: ADME, cell-based
[9] = system: BCRP; test: Permeability in human Caco-2 expressing BCRP cells across apical to basolateral side by measuring ratio of the final amount of the compound in donor and receiver chambers to the initial amount of the compound in the donor chamber in presence of novobiocin relative to control; type: ADME, cell-based; details: Caco-2, with novobiocin (concentration not stated)
[10] = system: MDR1; test: Permeability in MDCKII expressing MDR1 cells across basolateral to apical side by measuring ratio of the final amount of the compound in donor and receiver chambers to the initial amount of the compound in the donor chamber relative to control; type: ADME, cell-based, Canis lupus familiaris, MDCK-II; details: dog, MDCK-MDR1
[11] = system: BCRP; test: Permeability in human Caco-2 expressing BCRP cells across basolateral to apical side by measuring ratio of the final amount of the compound in donor and receiver chambers to the initial amount of the compound in the donor chamber relative to control; type: ADME, cell-based
[12] = Unbound fraction in mouse plasma by LC-MS/MS analysis relative to control; type: ADME
[13] = Protein binding in Kunming mouse brain assessed as binding rate by LC-MS/MS analysis relative to control; type: ADME, tissue-based; details: read-out: PB (converted)
[14] = AUC (0 to 12 hrs) in Sprague-Dawley rat plasma at 100 mg/kg, po measured after 0.083 to 24 hrs by HPLC analysis; type: ADME, organism-based; set-up: time lower 0.083 hrs, dose 100 mg/kg, time upper 24 hrs, route po
[15] = Half life in Sprague-Dawley rat plasma at 100 mg/kg, po by HPLC analysis; type: ADME, organism-based
[16] = Half life in Sprague-Dawley rat plasma at 100 mg/kg, iv by HPLC analysis; type: ADME, organism-based
[17] = Tmax in Sprague-Dawley rat plasma at 100 mg/kg, po measured after 0.083 to 24 hrs by HPLC analysis; type: ADME, organism-based; details: time 0.083-24 hrs
[18] = Ratio of drug concentration in total brain to total plasma in Kunming mouse assessed as blood brain barrier permeability measured at 0.5 to 12 hrs by HPLC analysis; details: time 0.5-12 hrs
[19] = Ratio of drug concentration in unbound brain to unbound plasma in Kunming mouse assessed as blood brain barrier permeability measured at 0.5 to 12 hrs by HPLC analysis; details: time 0.5-12 hrs
[20] = Toxicity in MPTP induced C57BL/6J mouse neurodegenerative model assessed as no change in heart weight treated with MPTP for 7 days followed by compound administration at 10 to 30 mg/kg, po measured upto 32 days; type: organism-based; details: in vivo, 768 h, dose 10-30 mg/kg, time < 32 day
[21] = Toxicity in MPTP induced C57BL/6J mouse neurodegenerative model assessed as no change in liver weight treated with MPTP for 7 days followed by compound administration at 10 to 30 mg/kg, po measured upto 32 days; type: organism-based; details: in vivo, 768 h, dose 10-30 mg/kg, time < 32 day
[22] = Toxicity in MPTP induced C57BL/6J mouse neurodegenerative model assessed as no change in spleen weight treated with MPTP for 7 days followed by compound administration at 10 to 30 mg/kg, po measured upto 32 days; type: organism-based; details: in vivo, 768 h, dose 10-30 mg/kg, time < 32 day
[23] = Toxicity in MPTP induced C57BL/6J mouse neurodegenerative model assessed as no change in lung weight treated with MPTP for 7 days followed by compound administration at 10 to 30 mg/kg, po measured upto 32 days; type: organism-based; details: in vivo, 768 h, dose 10-30 mg/kg, time < 32 day
[24] = Toxicity in MPTP induced C57BL/6J mouse neurodegenerative model assessed as no change in kidney weight treated with MPTP for 7 days followed by compound administration at 10 to 30 mg/kg, po measured upto 32 days; type: organism-based; details: in vivo, 768 h, dose 10-30 mg/kg, time < 32 day
[25] = system: Mus musculus; test: In vivo antiinflammatory activity in MPTP induced C57BL/6J mouse neurodegenerative model assessed as decrease in IL-1 beta expression treated with MPTP for 7 days followed by compound administration at 30 mg/kg, po by Western blotting analysis; type: functional, organism-based
[26] = system: Mus musculus; test: Neuroprotective activity in MPTP induced neurodegenerative C57BL/6J mouse model blood assessed as increase in tryptophan metabolite KYNA treated with MPTP for 7 days followed by compound administration at 30 mg/kg, po by LC-MS/MS analysis; type: functional, organism-based
[27] = system: Mus musculus; test: Neuroprotective activity in MPTP induced neurodegenerative C57BL/6J mouse model assessed as decrease in tryptophan metabolite NFK in mouse striatum treated with MPTP for 7 days followed by compound administration at 30 mg/kg, po by LC-MS/MS analysis; type: functional, organism-based
[28] = system: Mus musculus; test: Neuroprotective activity in MPTP induced neurodegenerative C57BL/6J mouse model assessed as decrease in tryptophan metabolite QUIN in mouse striatum treated with MPTP for 7 days followed by compound administration at 30 mg/kg, po by LC-MS/MS analysis; type: functional, organism-based
[29] = system: Mus musculus; test: Neuroprotective activity in MPTP induced neurodegenerative C57BL/6J mouse model assessed as decrease in tryptophan metabolite QUIN in mouse substantia nigra treated with MPTP for 7 days followed by compound administration at 30 mg/kg, po by LC-MS/MS analysis; type: functional, organism-based
[30] = biological target: Dual specificity tyrosine-phosphorylation-regulated kinase 1B (Homo sapiens) (UniProt Q9Y463); test: Inhibition of human wildtype full length DYRK1B expressed in bacterial system at 10 uM relative to control
Chain of Dual specificity tyrosine-phosphorylation-regulated kinase 1B (Homo sapiens) (Q9Y463 whole entry, looked up): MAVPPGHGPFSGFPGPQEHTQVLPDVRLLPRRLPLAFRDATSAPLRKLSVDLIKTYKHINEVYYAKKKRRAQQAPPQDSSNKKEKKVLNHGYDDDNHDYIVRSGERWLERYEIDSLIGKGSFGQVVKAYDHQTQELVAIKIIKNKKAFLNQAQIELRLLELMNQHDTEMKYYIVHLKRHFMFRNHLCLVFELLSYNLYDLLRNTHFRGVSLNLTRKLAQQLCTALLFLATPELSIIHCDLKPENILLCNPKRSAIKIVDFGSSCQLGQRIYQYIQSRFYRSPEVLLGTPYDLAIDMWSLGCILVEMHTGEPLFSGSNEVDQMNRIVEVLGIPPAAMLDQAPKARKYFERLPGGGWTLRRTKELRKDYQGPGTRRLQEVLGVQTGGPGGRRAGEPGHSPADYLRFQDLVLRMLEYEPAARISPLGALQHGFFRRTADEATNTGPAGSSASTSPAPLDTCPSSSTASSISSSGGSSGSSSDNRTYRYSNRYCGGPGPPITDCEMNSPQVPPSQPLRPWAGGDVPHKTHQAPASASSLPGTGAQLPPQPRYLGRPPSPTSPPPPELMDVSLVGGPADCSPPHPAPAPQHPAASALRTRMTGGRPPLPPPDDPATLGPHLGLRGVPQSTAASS

T1 sequence (P48775 whole entry): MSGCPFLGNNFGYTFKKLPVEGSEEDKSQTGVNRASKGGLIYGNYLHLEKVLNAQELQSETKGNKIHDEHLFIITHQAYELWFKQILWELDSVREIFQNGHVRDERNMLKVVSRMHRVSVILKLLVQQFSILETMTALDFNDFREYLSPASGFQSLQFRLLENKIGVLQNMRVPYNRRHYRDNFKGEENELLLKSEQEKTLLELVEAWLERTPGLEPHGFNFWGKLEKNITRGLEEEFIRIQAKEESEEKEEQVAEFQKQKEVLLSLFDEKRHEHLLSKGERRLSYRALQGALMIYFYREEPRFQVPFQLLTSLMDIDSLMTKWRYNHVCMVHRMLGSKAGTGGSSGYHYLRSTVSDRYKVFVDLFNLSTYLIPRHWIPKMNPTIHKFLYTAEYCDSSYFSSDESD
Chain of Indoleamine 2,3-dioxygenase 1 (P14902 whole entry): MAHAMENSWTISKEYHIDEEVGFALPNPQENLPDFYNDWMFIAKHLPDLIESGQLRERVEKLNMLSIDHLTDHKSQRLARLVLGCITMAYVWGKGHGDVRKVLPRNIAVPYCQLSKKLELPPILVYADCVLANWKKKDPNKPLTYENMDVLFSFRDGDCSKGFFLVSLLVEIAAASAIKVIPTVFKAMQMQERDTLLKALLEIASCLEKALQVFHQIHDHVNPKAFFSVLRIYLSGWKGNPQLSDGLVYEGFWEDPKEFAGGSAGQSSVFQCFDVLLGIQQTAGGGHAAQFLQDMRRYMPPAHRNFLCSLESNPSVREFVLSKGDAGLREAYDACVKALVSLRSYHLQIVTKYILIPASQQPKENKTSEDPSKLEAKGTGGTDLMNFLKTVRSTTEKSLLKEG

- IC50 [1]: 0.04 µM
- EC50 [2]: 5.5 µM
- EC50 [3]: 1.07 µM
- Papp A→B [4]: 13.5 ×10⁻⁶ cm/s
- Papp A→B [5]: 18.8 ×10⁻⁶ cm/s
- Papp B→A [6]: 9.97 ×10⁻⁶ cm/s
- recovery [7]: 55.1%
- recovery [8]: 42.2%
- recovery [9]: 43.8%
- recovery [10]: 81.9%
- recovery [11]: 74.5%
- Fu [12]: 0.73%
- fraction unbound [13]: 0.0025
- AUC(0-t) [14]: 22200 ng·h/mL
- half-life [15]: 4.27 h
- half-life [16]: 10.1 h
- Tmax [17]: 0.42 h
- Ratio [18]: 0.81%
- K(p,uu,brain) [19]: 0.28%
- inhibition [30]: > 90%
Structure (SMILES): O[C@@H]1CCCC[C@H]1CNc1cc(Br)cc2[nH]ncc12
- Activity [20]: Non-Toxic
- Activity [21]: Non-Toxic
- Activity [22]: Non-Toxic
- Activity [23]: Non-Toxic
- Activity [24]: Non-Toxic
- Activity [25]: Active
- Activity [26]: Active
- Activity [27]: Active
- Activity [28]: Active
- Activity [29]: Active
